According to patent publication US7906486B2, “Method of treating or preventing tissue deterioration, injury or damage due to disease of mucosa” (SciClone Pharmaceuticals, Inc., priority 2007, dated 2011):
“And” between values parts separate entries of the source, which are not always exact repeats. Equal values may be shown once.

Experiments:
[1] = tested on: oral mucositis induced by cis-platin 5 mg/kg and radiation 35 Gy (left cheek pouch); assay: Oral mucositis induced by a combination of cisplatin and acute radiation in hamsters, mucositis scoring (Example 4, SCI-04); assay type: in vivo, Syrian Golden Hamsters; design: key: 0: Pouch completely healthy. No erythema or vasodilation.; 1: Light to severe erythema and vasodilation. No erosion of mucosa.; 2: Severe erythema and vasodilation. Erosion of superficial aspects of mucosa leaving denuded areas, but no frank ulceration. Decreased stippling of mucosa.; 3: Formation of off-white ulcers in one or more places. Ulcers may have a yellow/gray due to pseudomembrane. Cumulative size of ulcers should equal about ¼ of the pouch. Severe erythema and vasodilation.; 4: Cumulative seize of ulcers should equal about ½ of the pouch. Loss of pliability. Severe erythema and vasodilation.; 5: Virtually all of pouch is ulcerated. Loss of pliability (pouch can only partially be extracted from mouth); conditions: Group 2 (SCV-07 10 μg/kg, day -1 to day 20), individual animal scores, two scores per animal
Protocol: Forty Golden Syrian hamsters were prospectively randomized into four equally sized groups. Mucositis was induced on the left cheek pouch mucosa of golden Syrian hamsters by a single dose of cis-platin at 5 mg/kg given on day −1, and a single dose of radiation administered on day 0 at a dose of 35Gy. Beginning on day −1 and continuing once daily until day 20, SCV-07 was given by sub-cutaneous injection at doses of 10 μg/kg, 100 μg/kg or 1 mg/kg in a volume of 100 μL. Animals' activity and weight were evaluated daily. Beginning on day 6 and continuing on alternate days for the duration of the study, oral mucositis was evaluated using a standard scoring six point scale. The number of days of ulcerative mucositis was evaluated using a Chi-squared test of scores of ≧3 throughout the study, and the individual daily group scores were assessed with a Rank Sum Test.
The chemo-radiation model of oral mucositis in hamsters, developed by the Principal Investigator, has proven to be an accurate, efficient and cost-effective technique to provide a preliminary evaluation of anti-mucositis compounds. In this model, hamsters received a single dose of cis-platin at 5 mg/kg on day −1, followed by a single dose of radiation of 35 Gy to the left cheek pouch on day 0, rather than the single dose of 40 Gy on day 0 that is used in acute radiation studies. The course of mucositis in this model is very similar to the acute radiation model and results in peak mucositis scores approximately 16-18 days following radiation.
Hamsters received a single dose of cis-platin at 5 mg/kg on day −1 by intra-peritoneal injection, followed by a single dose of radiation of 35 Gy to the left cheek pouch on day 0. This was accomplished by anesthetizing the animals and everting the left buccal pouch, while protecting the rest of the animal's bodies with a lead shield. Test materials were given by sub-cutaneous injection once daily as detailed in Table 13. Mucositis was evaluated clinically starting on day 6, and continuing on alternate days until day 28. Test articles were given as from day −1 to day 20.
The grade of mucositis was scored, beginning day 6, and for every second day thereafter, through and including day 28. The effect on mucositis of each drug treatment compared to placebo was assessed according to the following parameters:
On each evaluation day, the number of animals with a blinded mucositis score of ≧3 in each drug treatment group was compared to the control group. Differences were compared on a cumulative basis and statistical significance was determined by chi-square analysis. Efficacy, in this analysis, is defined by a significant reduction in the number of days that a group of animals had ulcerations (scores 3) when compared to the control group.
For each evaluation day the scores of the control group were compared to those of the treated groups using non-parametric rank sum analysis. Treatment success was considered as a statistically significant lowering of scores in the treated group on 2 or more days from day 6 to day 28.
Forty (40) male Syrian Golden Hamsters were given an intraperitoneal injection of 5 mg/kg Cisplatin on day −1. On day 0 all animals were given an acute radiation dose of 35 Gy directed to their left buccal cheek pouch. This was accomplished by anesthetizing the animals and everting the left buccal pouch, while protecting the rest of the animals with a lead shield. Test materials were given by subcutaneous injection once daily as detailed in Table 13. Mucositis was evaluated clinically starting on Day 6, and continued on alternate days until day 28.
In this study, mucositis was induced with a combination of Cis-platin and radiation. Cis-platin was given as a single injection (IP) of 5 mg/kg on day −1. Radiation was given as a single focal dose of 35 Gy on day 0. Radiation was generated with a Philips 160 kVp (kilovolt potential) (18.75-ma) X-ray source at a focal distance of 30 cm, with a 3.0 mm hardened Al filtration system. […]

[2] = Weights and survival (Example 3, SCI-03); assay type: in vivo, Syrian Golden Hamsters
Protocol: All animals were weighed daily and their survival recorded, in order to assess possible differences in animal weight among treatment groups as an indication for mucositis severity and/or possible toxicity resulting from the treatments.
There were no significant differences in weight changes between study groups. The mean daily percent weight change data was evaluated. The saline treated control hamsters gained an average of 76.3% of their starting weight during the study. Hamsters in the group receiving SCV-07 at 100 μg/kg on days −1 to 29 gained an average of 80.7% of their starting weight during the study. Hamsters in the group receiving SCV-07 at 100 μg/kg on days of radiation only gained an average of 66.3% of their starting weight during the study. Hamsters in the group receiving SCV-07 at 100 μg/kg on day −1, day 4, day 5 and days 10-29 gained an average of 69.7% of their starting weight during the study. The significance of these differences was evaluated by calculating the area-under-the-curve (AUC) for the weight gain of each animal, and then comparing the different treatment groups using a One-Way ANOVA test.

[3] = individual animals, Group 4 (SCV-07 100 μg/kg on days −1, 4, 5 and 10-29), second part of table

## N[C@H](CCC(=O)N[C@@H](Cc1c[nH]c2ccccc12)C(=O)O)C(=O)O [SCV-07, γ-D-glutamyl-L-tryptophan]
[1]; day 10
  Mucositis score, day 10: 2
[1]; day 12
  Mucositis score, day 12: 2
[1]; day 14
  Mucositis score, day 14: 2
[1]; day 16
  Mucositis score, day 16: 2
[1]; day 18
  Mucositis score, day 18: 2
[1]; day 20
  Mucositis score, day 20: 2
[1]; day 22
  Mucositis score, day 22: 2
[1]; day 24
  Mucositis score, day 24: 2
[1]; day 26
  Mucositis score, day 26: 2
[1]; day 28
  Mucositis score, day 28: 2
[2]; 100 ug/kg on day -1, day 4, day 5 and days 10-29
  average weight gain, % of starting weight during the study: 69.7%
[2]; 100 ug/kg on days -1 to 29
  average weight gain, % of starting weight during the study: 80.7%
[2]; 100 ug/kg on days of radiation only
  average weight gain, % of starting weight during the study: 66.3%
[2]; [3]
  Animal weight, Day 18: 113 and 121 and 88 and 98
  Animal weight, Day 19: 118 and 127 and 92 and 102
  Animal weight, Day 20: 118 and 128 and 92 and 104
  Animal weight, Day 21: 119 and 131 and 94 and 109
  Animal weight, Day 22: 120 and 133 and 95 and 109
  Animal weight, Day 23: 120 and 135 and 97 and 111
  Animal weight, Day 24: 123 and 135 and 99 and 112
  Animal weight, Day 25: 122 and 137 and 98 and 113
  Animal weight, Day 26: 123 and 139 and 100 and 118
  Animal weight, Day 27: 127 and 140 and 102 and 121
  Animal weight, Day 28: 128 and 142 and 103 and 122
  Animal weight, Day 29: 128 and 142 and 102 and 118
  Animal weight, Day 30: 132 and 146 and 105 and 126
  Animal weight, Day 31: 134 and 150 and 108 and 126
  Animal weight, Day 32: 134 and 149 and 109 and 129
  Animal weight, Day 33: 137 and 154 and 112 and 132
  Animal weight, Day 35: 140 and 154 and 113 and 134
[2]; individual animals, Group 4 (SCV-07 100 μg/kg on days −1, 4, 5 and 10-29), second part of table, c18, day inferred as 34
  Animal weight, Day 34: 139 and 153 and 112 and 133
